The results in this text go back to patent EP4744682A1, “NOVEL CERIUM OXIDE NANOCOMPOSITE WITH ENHANCED BIOSTABILITY AND USE THEREOF” (Cenyx Biotech Inc., priority 2023, dated 2025).

The test system of the data set is Hepa-1C1C7 hepatocyte cells. Description: Survival of pyrogallol-treated hepatocytes, NRU assay. The settings on record: 500µM pyrogallol alone; 3 hours; compared to pyrogallol-untreated control. The class given is cell-based. Here is the method:
Inflammatory liver disease is a condition where the liver cannot perform its normal functions due to liver damage, metabolic disorders, and accumulation of toxic substances. The present inventors sought to verify the therapeutic effect of the cerium oxide nanocomplex of the present invention on inflammatory liver disease. To induce the disease, Hepa-1C1C7 hepatocyte cells were treated with 500µM pyrogallol, a cytotoxic substance, to induce acute inflammatory liver disease. Simultaneously, the cells were treated with the cerium oxide nanocomplex of the present invention at concentrations ranging from 0.01 to 5µM. Three hours after treatment, the survival rate of Hepa-lclc7 cells was measured using the NRU assay, a biochemical analysis method that measures cell survival by allowing the neutral red dye to be absorbed by living cells. […] When treated with the cerium oxide nanocomplex of the present invention, survival rates of 74.55% at a minimum concentration of 0.01 µM and approximately 93.19% at a maximum concentration of 5µM were observed. This represents an increase in survival rate of at least 47.81% to a maximum of 84.78% compared to cells treated with pyrogallol alone (FIG. 13).

In the case of `Oc1cccc(O)c1O` [pyrogallol], the “survival rate of cells” value is “approximately 50.43%”.
